{"source": "patent US20220193081A1", "about": "(Ellamed IP & Services PTE. LTD., priority 2019, published 2022)", "key": {"[1]": {"test": "Visual inspection on storage of sildenafil citrate in buffered 60% aqueous ethanol (Example 4)", "type": "physicochemical", "settings": "pH 5.5, NaOH", "experimental": "Before being placed on storage, and at time points 7 and 42 days, the concentration of sildenafil in the mixtures were assayed using HPLC. The samples were then stored at either −20° C., 2-8° C. or 25° C. for periods of up to 42 days. Periodically, the samples were visually inspected for evidence of crystallization."}, "[2]": {"test": "Extended stability in buffered 50% ethanol, HPLC assay of sildenafil and impurities (Example 6)", "type": "physicochemical", "experimental": "Before being placed on storage in glass vials, plastic containers or Easysnap® blisters, and at time points up to 160 days, the concentration of sildenafil and its impurities in the mixtures were assayed using HPLC. The samples were then stored at 25° C./60% RH, 30° C./65% RH or 40° C./75% RH for periods of up to 160 days. The results of the assays are shown in Table 10 (sildenafil), Table 11 (Impurity B) and Table 12 (Impurity D)."}, "[3]": {"settings": "Easysnap ®, 25° C./60% RH, Day 32"}, "[4]": {"settings": "Easysnap ®, 25° C./60% RH, Day 80"}, "[5]": {"settings": "Easysnap ®, 25° C./60% RH, Day 159"}, "[6]": {"settings": "Easysnap ®, 30° C./65% RH, Day 32"}, "[7]": {"settings": "Easysnap ®, 40° C./75% RH, Day 32"}, "[8]": {"settings": "plastic, 25° C./60% RH, Day 159"}}, "data": [{"smiles": "CCCc1nn(C)c2c(=O)nc(-c3cc(S(=O)(=O)N4CCN(C)CC4)ccc3OCC)[nH]c12.O=C(O)CC(O)(CC(=O)O)C(=O)O", "note": "[sildenafil citrate, 1-[[3-(4,7-Dihydro-1-methyl-7-oxo-3-propyl-1H-pyrazolo[4,3-d]pyrimidin-5-yl)-4-ethoxyphenyl]sulfonyl]-4-methylpiperazine citrate salt]", "values": [{"measurement": "visual inspection for crystallization", "setting": "[1]; 18 mg/ml, with sucralose, 2-8° C.", "result": "Prec."}, {"measurement": "visual inspection for crystallization", "setting": "[1]; 18 mg/ml, with sucralose, −20° C.", "result": "Prec."}, {"measurement": "visual inspection for crystallization", "setting": "[1]; 18 mg/ml, without sucralose, 2-8° C.", "result": "Prec."}, {"measurement": "visual inspection for crystallization", "setting": "[1]; 18 mg/ml, without sucralose, −20° C.", "result": "Prec."}, {"measurement": "visual inspection for crystallization", "setting": "[1]; 21 mg/ml, without sucralose, 2-8° C.", "result": "Prec."}, {"measurement": "visual inspection for crystallization", "setting": "[1]; 21 mg/ml, without sucralose, −20° C.", "result": "Prec."}, {"measurement": "sildenafil assay", "setting": "[2]; 20 mg/ml with sucralose 1 mg/ml, monoammonium glycyrrhizinate 1 mg/ml, eucalyptus-menthol 3 mg/ml, Day 0, before storage", "result": 102.02, "unit": "% LS"}, {"measurement": "Impurity B", "setting": "[2]; [3]", "result": 0.09, "unit": "% RS"}, {"measurement": "Impurity D", "setting": "[2]; [3]", "result": 0.030, "unit": "% RS"}, {"measurement": "sildenafil assay", "setting": "[2]; [3]", "result": 100.87, "unit": "% LS"}, {"measurement": "Impurity B", "setting": "[2]; [4]", "result": 0.11, "unit": "% RS"}, {"measurement": "Impurity D", "setting": "[2]; [4]", "result": 0.030, "unit": "% RS"}, {"measurement": "sildenafil assay", "setting": "[2]; [4]", "result": 101.53, "unit": "% LS"}, {"measurement": "Impurity B", "setting": "[2]; [5]", "result": 0.20, "unit": "% RS"}, {"measurement": "Impurity D", "setting": "[2]; [5]", "result": 0.034, "unit": "% RS"}, {"measurement": "sildenafil assay", "setting": "[2]; [5]", "result": 100.91, "unit": "% LS"}, {"measurement": "Impurity B", "setting": "[2]; [6]", "result": 0.10, "unit": "% RS"}, {"measurement": "Impurity D", "setting": "[2]; [6]", "result": 0.030, "unit": "% RS"}, {"measurement": "sildenafil assay", "setting": "[2]; [6]", "result": 100.85, "unit": "% LS"}, {"measurement": "Impurity B", "setting": "[2]; [7]", "result": 0.20, "unit": "% RS"}, {"measurement": "Impurity D", "setting": "[2]; [7]", "result": 0.030, "unit": "% RS"}, {"measurement": "sildenafil assay", "setting": "[2]; [7]", "result": 101.46, "unit": "% LS"}, {"measurement": "Impurity B", "setting": "[2]; glass, 25° C./60% RH, Day 32", "result": 0.07, "unit": "% RS"}, {"measurement": "Impurity D", "setting": "[2]; glass, 25° C./60% RH, Day 32", "result": 0.030, "unit": "% RS"}, {"measurement": "sildenafil assay", "setting": "[2]; glass, 25° C./60% RH, Day 32", "result": 100.76, "unit": "% LS"}, {"measurement": "Impurity B", "setting": "[2]; glass, 25° C./60% RH, Day 80", "result": 0.10, "unit": "% RS"}, {"measurement": "Impurity D", "setting": "[2]; glass, 25° C./60% RH, Day 80", "result": 0.030, "unit": "% RS"}, {"measurement": "sildenafil assay", "setting": "[2]; glass, 25° C./60% RH, Day 80", "result": 101.47, "unit": "% LS"}, {"measurement": "Impurity B", "setting": "[2]; glass, 25° C./60% RH, Day 159", "result": 0.17, "unit": "% RS"}, {"measurement": "Impurity D", "setting": "[2]; glass, 25° C./60% RH, Day 159", "result": 0.038, "unit": "% RS"}, {"measurement": "sildenafil assay", "setting": "[2]; glass, 25° C./60% RH, Day 159", "result": 100.68, "unit": "% LS"}, {"measurement": "Impurity B", "setting": "[2]; glass, 30° C./65% RH, Day 32", "result": 0.10, "unit": "% RS"}, {"measurement": "Impurity D", "setting": "[2]; glass, 30° C./65% RH, Day 32", "result": 0.030, "unit": "% RS"}, {"measurement": "sildenafil assay", "setting": "[2]; glass, 30° C./65% RH, Day 32", "result": 100.46, "unit": "% LS"}, {"measurement": "Impurity B", "setting": "[2]; glass, 40° C./75% RH, Day 32", "result": 0.17, "unit": "% RS"}, {"measurement": "Impurity D", "setting": "[2]; glass, 40° C./75% RH, Day 32", "result": 0.030, "unit": "% RS"}, {"measurement": "sildenafil assay", "setting": "[2]; glass, 40° C./75% RH, Day 32", "result": 100.39, "unit": "% LS"}, {"measurement": "Impurity B", "setting": "[2]; glass, 40° C./75% RH, Day 159", "result": 0.45, "unit": "% RS"}, {"measurement": "Impurity D", "setting": "[2]; glass, 40° C./75% RH, Day 159", "result": 0.039, "unit": "% RS"}, {"measurement": "sildenafil assay", "setting": "[2]; glass, 40° C./75% RH, Day 159", "result": 100.60, "unit": "% LS"}, {"measurement": "Impurity B", "setting": "[2]; plastic, 25° C./60% RH, Day 32", "result": 0.08, "unit": "% RS"}, {"measurement": "Impurity D", "setting": "[2]; plastic, 25° C./60% RH, Day 32", "result": 0.040, "unit": "% RS"}, {"measurement": "sildenafil assay", "setting": "[2]; plastic, 25° C./60% RH, Day 32", "result": 100.42, "unit": "% LS"}, {"measurement": "Impurity B", "setting": "[2]; plastic, 25° C./60% RH, Day 80", "result": 0.09, "unit": "% RS"}, {"measurement": "Impurity D", "setting": "[2]; plastic, 25° C./60% RH, Day 80", "result": 0.030, "unit": "% RS"}, {"measurement": "sildenafil assay", "setting": "[2]; plastic, 25° C./60% RH, Day 80", "result": 101.59, "unit": "% LS"}, {"measurement": "Impurity B", "setting": "[2]; [8]", "result": 0.16, "unit": "% RS"}, {"measurement": "Impurity D", "setting": "[2]; [8]", "result": 0.033, "unit": "% RS"}, {"measurement": "sildenafil assay", "setting": "[2]; [8]", "result": 101.19, "unit": "% LS"}, {"measurement": "Impurity B", "setting": "[2]; plastic, 30° C./65% RH, Day 32", "result": 0.09, "unit": "% RS"}, {"measurement": "Impurity D", "setting": "[2]; plastic, 30° C./65% RH, Day 32", "result": 0.030, "unit": "% RS"}, {"measurement": "sildenafil assay", "setting": "[2]; plastic, 30° C./65% RH, Day 32", "result": 100.79, "unit": "% LS"}, {"measurement": "Impurity B", "setting": "[2]; plastic, 40° C./75% RH, Day 32", "result": 0.17, "unit": "% RS"}, {"measurement": "Impurity D", "setting": "[2]; plastic, 40° C./75% RH, Day 32", "result": 0.030, "unit": "% RS"}, {"measurement": "sildenafil assay", "setting": "[2]; plastic, 40° C./75% RH, Day 32", "result": 100.76, "unit": "% LS"}]}]}
